Reference: patent US10421779B2, “Carbazole compound having anti-virus activity” (priority 2016, dated 2019)
Where two headings read alike, the source gives them in different places.

Legend:
Assay type in all cases: cell-based
[1] = tested on: HCV genotype 2a (HCV cell culture system, HCVcc); assay: HCVcc genotype 2a JFH1 (JFH 5a-Rluc) virus in Huh7.5.1 cells, luciferase assay; conditions: Hepatitis C virus, Huh-7.5.1, 72 h, HCV genotype 2a JFH 5a-Rluc, 3 days, read-out: Replicon EC50 2a type
Method: (§1) From human liver cells (Huh7.5.1 cell) infected by hepatitis C virus, the anti-virus effects by the compound of the present invention were measured. From HCV genotype 1 b (HCV replicon system), genotype 2a (HCV cell culture system, HCVcc), and genotype 3a, the EC50 values were measured.
In order to measure the EC50 value from HCV genotype 2a, a luciferase assay was used. A JFH1 clone (JFH 5a-Rluc) virus constructed to have a Renilla luciferase enzyme (Rluc) gene in NS5A protein was infected with Huh7.5.1 cell being a host cell, and then the EC50 value was measured by taking cells grown for 3 days by treating the experimental compound under various concentration conditions, and analyzing the activity degree of the luciferase.

[2] = tested on: HCV genotype 1 b (HCV replicon system); assay: HCV replicon system genotype 1b, Renilla luciferase activity; conditions: Hepatitis C virus, 72 h, HCV genotype 1b replicon, Rluc, 3 days, read-out: Replicon EC50 1b type
Method: as §1
In order to measure the EC50 value from HCV genotype 1 b, the degrees of HCV replication inhibitory activities of an experimental compound were measured. The EC50 value was measured by treating the experimental compound with the HCV replicon systems (genotype 1 b) having Renilla luciferase (Rluc) genes and genotype 1 b non-structure genes under various concentration conditions to compare the activity degree of the luciferase after 3 days elapsed time with that of the control.

[3] = tested on: HCV genotype 3a (HCV replicon system); assay: HCV replicon system genotype 3a, firefly luciferase activity; conditions: Hepatitis C virus, 72 h, HCV genotype 3a replicon, Fluc, 3 days, read-out: Replicon EC50 3a type
Method: as §1
In order to measure the EC50 value from genotype 3a, the value was measured through the luciferase activity. A HCV replicon system having firefly luciferase (Fluc) genes and genotype 3a non-structure genes was used. The HCV replicon system having the genes as described above was used to treat the experimental compound under various concentration conditions, and then 3 days later, the EC50 value was measured by comparing the luciferase activity with that of the control.

[4] = range limits given with own units (pM to nM)

| Structure (SMILES) | EC50 [1] [nM] | EC50 [2] [pM] | EC50 [3] [pM] | EC50 [2, 4] [pM] | EC50 [3, 4] [pM] |
| --- | --- | --- | --- | --- | --- |
| COC(=O)N[C@@H](C(=O)N1CCC[C@H]1C(=O)Nc1ccc2c3ccc(NC(=O)[C@@H]4CCCN4C(=O)[C@H](NC(=O)OC)c4ccccc4)cc3n(C(C3CC3)C3CC3)c2c1)c1ccccc1 [Example 49, dimethyl ((1R,1′R)-((2S,2′S)-(((9-(dicyclopropylmethyl)-9H-carbazole-2,7-diyl)bis(azanediyl))bis(carbonyl))bis(pyrrolidine-2,1-diyl))bis(2-oxo-1-phenylethane-2,1-diyl))dicarbamate] | > 10 | 8.4 | 76.6 | – | – |
| COC(=O)N[C@@H](C(=O)N1CCC[C@H]1C(=O)Nc1ccc2c3ccc(NC(=O)[C@@H]4CCCN4C(=O)[C@H](NC(=O)OC)c4ccccc4)cc3n(Cc3cccc([N+](=O)[O-])c3)c2c1)c1ccccc1 [Example 37, dimethyl ((1R,1′R)-((2S,2′S)-(((9-(3-nitrobenzyl)-9H-carbazole-2,7-diyl)bis(azanediyl))bis(carbonyl))bis(pyrrolidine-2,1-diyl))bis(2-oxo-1-phenylethane-2,1-diyl))dicarbamate] | – | 14.5 | 87.4 | – | – |
| COC(=O)N[C@@H](C(=O)N1CCC[C@H]1C(=O)Nc1ccc2c3ccc(NC(=O)[C@@H]4CCCN4C(=O)[C@H](NC(=O)OC)c4ccccc4)cc3n(CC3CCCCC3)c2c1)c1ccccc1 [Example 48, dimethyl ((1R,1′R)-((2S,2′S)-(((9-(cyclohexylmethyl)-9H-carbazole-2,7-diyl)bis(azanediyl))bis(carbonyl))bis(pyrrolidine-2,1-diyl))bis(2-oxo-1-phenylethane-2,1-diyl))dicarbamate] | – | 7.41 | 161 | – | – |
| COC(=O)N[C@@H](C(=O)N1CCC[C@H]1C(=O)Nc1ccc2c3ccc(NC(=O)[C@@H]4CCCN4C(=O)[C@H](NC(=O)OC)c4ccccc4)cc3n(CCc3ccccc3)c2c1)c1ccccc1 [Example 50, dimethyl ((1R,1′R)-((2S,2′S)-(((9-phenethyl-9H-carbazole-2,7-diyl)bis(azanediyl))bis(carbonyl))bis(pyrrolidine-2,1-diyl))bis(2-oxo-1-phenylethane-2,1-diyl))dicarbamate] | – | 4.34 | 183 | – | – |
| COC(=O)N[C@@H](C(=O)N1CCC[C@H]1C(=O)Nc1ccc2c3ccc(NC(=O)[C@@H]4CCCN4C(=O)[C@H](NC(=O)OC)c4ccccc4)cc3n(CCCCCCCCCCN3CCN(C)CC3)c2c1)c1ccccc1 [Example 33, dimethyl ((1R,1′R)-((2S,2′S)-(((9-(10-(4-methylpiperazine-1-yl)decyl)-9H-carbazole-2,7-diyl)bis(azanediyl))bis(carbonyl))bis(pyrrolidine-2,1-diyl))bis(2-oxo-1-phenylethane-2,1-diyl))dicarbamate] | – | – | – | 100 to 1000 | 100 to 1000 |
| CCCCCOc1cccc(Cn2c3cc(NC(=O)[C@@H]4CCCN4C(=O)[C@H](NC(=O)OC)c4ccccc4)ccc3c3ccc(NC(=O)[C@@H]4CCCN4C(=O)[C@H](NC(=O)OC)c4ccccc4)cc32)c1 [Example 30, dimethyl ((1R,1′R)-((2S,2′S)-(((9-(3-(pentyloxy)benzyl)-9H-carbazole-2,7-diyl)bis(azanediyl))bis(carbonyl))bis(pyrrolidine-2,1-diyl))bis(2-oxo-1-phenylethane-2,1-diyl))dicarbamate] | ~1 | 10 to 100 | 71 | – | – |
| CCCCn1c2cc(NC(=O)[C@@H]3CCCN3C(=O)[C@H](NC(=O)OC)c3ccccc3)ccc2c2ccc(-c3c[nH]c([C@@H]4CCCN4C(=O)[C@H](NC(=O)OC)c4ccccc4)n3)cc21 [Example 51, methyl ((R)-2-((S)-2-((9-butyl-7-(2-((S)-1-((R)-2-((methoxycarbonyl)amino)-2-phenylacetyl)pyrrolidine-2-yl)-1H-imidazole-4-yl)-9H-carbazole-2-yl)carbamoyl)pyrrolidine-1-yl)-2-oxo-1-phenylethyl)carbamate] | 0.387 | 14.5 | 193 | – | – |
| CCCCn1c2cc(NC(=O)[C@@H]3CCCN3C(=O)[C@H](NC(=O)OC)c3ccccc3)ccc2c2ccc(-c3c[nH]c([C@@H]4CCCN4C(=O)[C@@H](NC(=O)OC)C(C)C)n3)cc21 [Example 52, methyl ((R)-2-((S)-2-((9-butyl-7-(2-((S)-1-((methoxycarbonyl)-L-valyl)pyrrolidine-2-yl)-1H-imidazole-4-yl)-9H-carbazole-2-yl)carbamoyl)pyrrolidine-1-yl)-2-oxo-1-phenylethyl)carbamate] | 0.171 | 12.3 | 148 | – | – |
| COC(=O)N[C@@H](C(=O)N1CCC[C@H]1C(=O)Nc1ccc2c3ccc(NC(=O)[C@@H]4CCCN4C(=O)[C@H](NC(=O)OC)c4ccccc4)cc3n(Cc3ccccc3C(F)(F)F)c2c1)c1ccccc1 [Example 43, dimethyl ((1R,1′R)-((2S,2′S)-(((9-(2-(trifluoromethyl)benzyl)-9H-carbazole-2,7-diyl)bis(azanediyl))bis(carbonyl))bis(pyrrolidine-2,1-diyl))bis(2-oxo-1-phenylethane-2,1-diyl))dicarbamate] | > 10 | ~10 | – | – | – |
| CCCCCCCCCCn1c2cc(NC(=O)[C@@H]3CCCN3C(=O)[C@H](NC(=O)OC)c3ccccc3)ccc2c2ccc(NC(=O)[C@@H]3CCCN3C(=O)[C@H](NC(=O)OC)c3ccccc3)cc21 [Example 24, dimethyl ((1R,1′R)-((2S,2′S)-(((9-decyl-9H-carbazole-2,7-diyl)bis(azanediyl))bis(carbonyl))bis(pyrrolidine-2,1-diyl))bis(2-oxo-1-phenylethane-2,1-diyl))dicarbamate] | 10 to 100 | ~10 | – | – | – |
| COC(=O)N[C@@H](C(=O)N1CCC[C@H]1C(=O)Nc1ccc2c3ccc(NC(=O)[C@@H]4CCCN4C(=O)[C@H](NC(=O)OC)c4ccccc4)cc3n(Cc3ccc(C(F)(F)F)cc3)c2c1)c1ccccc1 [Example 45, dimethyl ((1R,1′R)-((2S,2′S)-(((9-(4-(trifluoromethyl)benzyl)-9H-carbazole-2,7-diyl)bis(azanediyl))bis(carbonyl))bis(pyrrolidine-2,1-diyl))bis(2-oxo-1-phenylethane-2,1-diyl))dicarbamate] | > 10 | ~10 | 199 | – | – |
| CCCCOc1ccccc1Cn1c2cc(NC(=O)[C@@H]3CCCN3C(=O)[C@H](NC(=O)OC)c3ccccc3)ccc2c2ccc(NC(=O)[C@@H]3CCCN3C(=O)[C@H](NC(=O)OC)c3ccccc3)cc21 [Example 32, dimethyl ((1R,1′R)-((2S,2′S)-(((9-(2-butoxybenzyl)-9H-carbazole-2,7-diyl)bis(azanediyl))bis(carbonyl))bis(pyrrolidine-2,1-diyl))bis(2-oxo-1-phenylethane-2,1-diyl))dicarbamate] | 1 to 10 | – | – | 100 to 1000 | – |
| CCCCCCCC(c1ccccc1)n1c2cc(NC(=O)[C@@H]3CCCN3C(=O)[C@H](NC(=O)OC)c3ccccc3)ccc2c2ccc(NC(=O)[C@@H]3CCCN3C(=O)[C@H](NC(=O)OC)c3ccccc3)cc21 (stereo partly drawn) [Example 29, dimethyl ((1R,1′R)-((2S,2′S)-(((9-(1-phenyloctyl)-9H-carbazole-2,7-diyl)bis(azanediyl))bis(carbonyl))bis(pyrrolidine-2,1-diyl))bis(2-oxo-1-phenylethane-2,1-diyl))dicarbamate] | 1 to 10 | 10 to 100 | 10000 to 100000 | – | – |
| COC(=O)N[C@@H](C(=O)N1CCC[C@H]1C(=O)Nc1ccc2c3ccc(NC(=O)[C@@H]4CCCN4C(=O)[C@H](NC(=O)OC)c4ccccc4)cc3n(Cc3cccc(NC(=O)C(C)(C)C)c3)c2c1)c1ccccc1 [Example 38, dimethyl ((1R,1′R)-((2S,2′S)-(((9-(3-pivalamidobenzyl)-9H-carbazole-2,7-diyl)bis(azanediyl))bis(carbonyl))bis(pyrrolidine-2,1-diyl))bis(2-oxo-1-phenylethane-2,1-diyl))dicarbamate] | – | 35.4 | 81.9 | – | – |
| CCCCn1c2cc(NC(=O)C3CCCN3C(=O)[C@H](C(C)C)N3CCOC3=O)ccc2c2ccc(NC(=O)[C@@H]3CCCN3C(=O)[C@H](C(C)C)N3CCOC3=O)cc21 (stereo partly drawn) [Example 5, (2S,2′S)—N,N′-(9-butyl-9H-carbazole-2,7-diyl)bis(1-((S)-3-methyl-3-2-(2-oxooxazolidine-3-yl)butanoyl)pyrrolidine-2-carboxamide)] | – | > 100000 | – | – | – |
| COC(=O)N[C@@H](C(=O)N1CCC[C@H]1C(=O)Nc1ccc2c3ccc(NC(=O)[C@@H]4CCCN4C(=O)[C@H](NC(=O)OC)C(C)C)cc3n(C)c2c1)C(C)C [Example 7, dimethyl ((2R,2′R)-((2S,2′S)-(((9-methyl-9H-carbazole-2,7-diyl)bis(azanediyl))bis(carbonyl))bis(pyrrolidine-2,1-diyl))bis(3-methyl-1-oxobutane-1,2-diyl))dicarbamate] | – | > 1000 | – | – | – |
